Measurements from patent US4880809A, “1,4-disubstituted piperazines (or homopiperazines) as platelet-activating factor antagonists” (Takeda Chemical Industries, Ltd., priority 1987, dated 1989).

Tests used:
[1] = tested on: PAF-Induced Platelet Aggregation; assay: Inhibitory Action on PAF-Induced Platelet Aggregation; assay type: cell-based, New Zealand white male rabbits; details: Oryctolagus cuniculus, Drug Concentration: 3 × 10^-5 M, rabbit PRP
Procedure: Blood was collected from the hearts of conscious New Zealand white male rabbits weighing 2 to 3 kg using citric acid as an anticoagulant (one volume part of 3.15% citric acid per 9 volume parts of the whole blood). The blood was subjected to a centrifuge at 800 rpm for ten minutes to obtain platelet rich plasma (PRP). The remaining blood after collecting the PRP was subjected to a centrifuge at 3000 rpm for ten minutes to obtain platelet poor plasma (PPP). PRP was diluted with PPP, and the number of platelets was adjusted to 500,000/μl. Platelet aggregation was examined by means of turbidimetry [Born, Nature, 194, 927-929 (1962)] with 8 channel aggregometer (NBS HEMA TRACER 6 Nikoh, Bioscience, Japan). More concretely, PRP (250 μl) was kept warm (37° C.) for three minutes in a silicon-processed cuvette, to which was added a test sample (25 μl) dissolved in a physiological saline or in 10mM dimethylsulfoxide followed by dilution with a physiological saline. Two minutes later, PAF (25 μl, 3×10^-9 -1×10^-8 M), dissolved in a physiological saline, was added and then the maximum aggregation rate was determined. As the control, physiological saline without test sample was added to the cuvette, and the inhibitory rate thereon was determined.

PAF-Induced Hypotension = assay: Inhibitory Action on PAF-Induced Hypotension; assay type: in vivo, SD (Jcl) male rats; details: po, 30 mg/kg p.o., rat
ET-induced hypotension = assay: Anti-Endotoxin Shock Activity in Rats: ET-induced hypotension; assay type: in vivo, Jcl: SD male rats; details: for Blood Pressure: 30 mg/kg p.o. one hour before ET, n = 5
Procedure: (§1) In a manner similar to that described in Test Example 2, Jcl: SD male rats (200 to 250 g) were applied with cannulation for measurement of blood pressure and for injecting PAF. The test animals were fasted overnight, and the experiments were conducted. The cannula on the side of femoral artery was connected with a pressure transducer and secured. The, endotoxin (ET) (50 mg/kg) was given through the cannula on the side of femoral vein at a rate of 1 ml/kg. While measuring blood pressure continuously, time until death was measured. Test drugs (30 mg/kg) were suspended in gum arabic and water, which were orally administered (5 ml/kg) to test animals one hour before the injection of ET. The animals in the control group were administered with a suspension of gum arabic in water.

ET-induced death = assay: Anti-Endotoxin Shock Activity in Rats: ET-induced death; assay type: in vivo, Jcl: SD male rats; details: for Number of survivals: 30 mg/kg p.o. one hour before ET, n = 5
Procedure: as §1

[2] = tested on: reversed passive Arthus reaction; assay: Inhibitory Action Against Reversed Passive Arthus Reaction; assay type: in vivo, Jcl SD male rats; details: p.o. (n = 6)
Procedure: This reaction was conducted, in accordance with the method reported by Chang and Otterness [Eur. J. Pharmacol., 69, 155 (1981)], by using rabbit anti-egg albumin (EA) antiserum. Jcl SD male rats (7 wk) were used. Under ether anesthesia, the hair of the back was cut and 1 ml of a 0.5% solution of EA in physiological saline was injected into the tail vein, followed by intracutaneous injection of 0.1 ml each of the left- and right-hand sides of the back. Vascular permeability was measured as follows. Three hours later, 1 ml of physiological saline containing 1% of Evans blue was given intravenously, and 30 minutes later, the animals were sacrificed by bleeding and the skin excised, and the area of wheals stained with a leakage of the dye (major axis x minor axis, mm^2). The test compounds were suspended in a 5% gum arabic solution, which was administered orally one hour before administration of the antigen.

diabetic nephropathy = assay: Action Against Diabetic Nephropathy; assay type: in vivo, Female KKAy mice; details: for albumin (%) excreted in urine / Amount of albumin excreted in urine / Amount of glucose in plasma / Amount of triglyceride in plasma / Total amount of protein in urine: 3 weeks, N 8; for albumin (%) excreted in urine: in parentheses; for Amount of albumin excreted in urine / Amount of glucose in plasma / Amount of triglyceride in plasma / Total amount of protein in urine: means ±SE
Procedure: Female KKAy mice of 10 weeks old were employed. Test animals were administered with the compound of Example 62 for three weeks at doses of 8 and 26 mg/kg/day in admixture with feedstuff. Then, urine was collected from these animals for 24 hours. Urine desalted (filtered urine) by means of a PD-10 column (Pharmacia) was employed to determine the total protein concentration in the urine by using a protein-assay kit (Bio-Rad). The amount ot albumin in the urine was calculated from the relative concentration of albumin to the total protein determined by means of electrophoresis.
Glucose and triglyceride in the plasma were determined by an enzyme method using the Ankol Chemistry System (Baker instruments).

cerebral infarction [3] = assay: Action Against Experimental Cerebral Infarction in Mongolian Gerbils (stroke index); assay type: in vivo; details: 30 mg/kg, p.o., N = 5
Procedure: (§2) Male 10 weeks old Mongolian gerbils were anesthetized with ether. The common carotid artery on both sides was exposed surgically. After waking, the artery was ligated with steel clips for 15 minutes. Then, the clips were removed and the blood was reperfused for three hours. Ataxia symptoms and manifestations of neuro-deficiency were assessed by the method using stroke index [C. P. McGraw: Arch. Neurol., 34, 334-336 (1977)] and inclined plane [A. S. Rivlin et al.: J. Neurosurg., 47, 577-581 (1977)]. The test compounds were orally administered one hour before ligation as a suspension in gum arabic. The control group was administered with the same volume of gum arabic. The number of animals subjected to this experiment was 5 each in both groups.

cerebral infarction [4] = assay: Action Against Experimental Cerebral Infarction in Mongolian Gerbils (inclined plane); assay type: in vivo; details: 30 mg/kg, p.o., n = 5
Procedure: as §2

Wistar-strain rats = assay: Toxicity Test; assay type: in vivo, Male Wistar-strain rats; details: 30, 100 and 300 mg/kg per day orally, two weeks
Procedure: Male Wistar-strain rats (5 wk) were used in groups of five individuals. The animals of the respective groups were orally administered with the compound of Example 62 at the dose of 30, 100 and 300 mg/kg per day over a period of two weeks as a suspension in gum arabic and water at a rate of 10 ml/kg. The animals of the control group were administered with a suspension of gum arabic in water. [Results]

[5] = 8 and 26 mg/kg/day, three weeks

SMILES: COc1cc2c(cc1OC)CCCC(C(=O)N1CCN(C(=O)c3cc(OC)c(OC)c(OC)c3)CC1)=C2 [Example 62, 1-(2,3-dimethoxy-6,7-dihydro-5H-benzocyclohepten-8-ylcarbonyl)-4-(3,4,5-trimethoxybenzoyl)piperazine]
- inhibition at 30 µM [1]: 100%
- inhibition in vivo at 30 mg/kg (PAF-Induced Hypotension; after 1 hr): 100%
- inhibition in vivo at 30 mg/kg (PAF-Induced Hypotension; after 2 hrs): 100%
- inhibition in vivo at 30 mg/kg (PAF-Induced Hypotension; after 4 hrs): 100%
- lowering of blood pressure due to ET (ET-induced hypotension; 30 mg/kg p.o.): suppressed significantly
- Blood Pressure (ET-induced hypotension; 0 min): 92 ± 2 mmHg
- Blood Pressure (ET-induced hypotension; 3 min): 82 ± 6 mmHg
- Blood Pressure (ET-induced hypotension; 5 min, **P < 0.01): 90 ± 4 mmHg
- Blood Pressure (ET-induced hypotension; 10 min, *P < 0.05): 90 ± 4 mmHg
- Blood Pressure (ET-induced hypotension; 15 min): 92 ± 3 mmHg
- Blood Pressure (ET-induced hypotension; 20 min): 95 ± 3 mmHg
- Number of survivals (ET-induced death; 0 hr): 5
- Number of survivals (ET-induced death; 1 hr): 5
- Number of survivals (ET-induced death; 2 hr): 5
- Number of survivals (ET-induced death; 3 hr): 5
- Number of survivals (ET-induced death; 4 hr): 4
- Number of survivals (ET-induced death; 5 hr): 2
- Number of survivals (ET-induced death; 6 hr): 1
- Number of survivals (ET-induced death; 7 hr): 1
- Number of survivals (ET-induced death; 8 hr): 1
- survival time (ET-induced death; 30 mg/kg p.o., control group 108±26 minutes, **): 320 ± 45 min
- Area of wheals stained with the dye ([2]; 3.1 mg/kg): 52.8 ± 2.7 mm^2
- Preventive effect of reversed passive Arthus reaction ([2]; 3.1 mg/kg): 5%
- Area of wheals stained with the dye ([2]; 12.5 mg/kg): 38.4 ± 6.1 mm^2
- Preventive effect of reversed passive Arthus reaction ([2]; 12.5 mg/kg): 31%
- Preventive effect of reversed passive Arthus reaction ([2]; 50 mg/kg): 70%
- Area of wheals stained with the dye ([2]; 50 mg/kg, **P < 0.01): 16.8 ± 5.1 mm^2
- albumin (%) excreted in urine (diabetic nephropathy; 8 mg/kg/day p.o.): 46%
- Amount of albumin excreted in urine (diabetic nephropathy; 8 mg/kg/day p.o.): 11.0 ± 2.0 mg/day
- Amount of glucose in plasma (diabetic nephropathy; 8 mg/kg/day p.o.): 326 ± 26 mg/dL
- Amount of triglyceride in plasma (diabetic nephropathy; 8 mg/kg/day p.o.): 499 ± 45 mg/dL
- Total amount of protein in urine (diabetic nephropathy; 8 mg/kg/day p.o.): 23.8 ± 2.9 mg/day
- suppression of excretion of albumin in urine (diabetic nephropathy; 26 mg/kg/day): significant
- albumin (%) excreted in urine (diabetic nephropathy; 26 mg/kg/day p.o.): 36%
- Amount of glucose in plasma (diabetic nephropathy; 26 mg/kg/day p.o.): 381 ± 33 mg/dL
- Amount of triglyceride in plasma (diabetic nephropathy; 26 mg/kg/day p.o.): 546 ± 43 mg/dL
- Total amount of protein in urine (diabetic nephropathy; 26 mg/kg/day p.o.): 22.0 ± 3.8 mg/day
- Amount of albumin excreted in urine (diabetic nephropathy; 26 mg/kg/day p.o., *p<0.05 vs control): 8.0 ± 0.7 mg/day
- excretion of albumin in urine (diabetic nephropathy; [5]): suppressed the excretion of albumin in urine dose-dependently
- plasma glucose (diabetic nephropathy; [5]): No change
- plasma triglyceride (diabetic nephropathy; [5]): No change
- total protein in urine (diabetic nephropathy; high dose): showed a tendency of being suppressed in a high dose
- Stroke index (cerebral infarction [3]; 15 min after reperfusion, **P < 0.01): 4.2 ± 0.6
- Stroke index (cerebral infarction [3]; 30 min after reperfusion, **P < 0.01): 3.4 ± 0.5
- Stroke index (cerebral infarction [3]; 60 min after reperfusion, **P < 0.01): 3.2 ± 0.5
- Stroke index (cerebral infarction [3]; 120 min after reperfusion, **P < 0.01): 2.0 ± 0
- Stroke index (cerebral infarction [3]; 180 min after reperfusion, **P < 0.01): 0.8 ± 0.5
- Stroke index (cerebral infarction [3]; ligation time 0 min): 0
- Stroke index (cerebral infarction [3]; ligation time 15 min, *P < 0.05): 14.0 ± 1.0
- Angle of inclined plane where test animals tumble down the ramp (cerebral infarction [4]; 15 min after reperfusion): 34 ± 3 °
- Angle of inclined plane where test animals tumble down the ramp (cerebral infarction [4]; 30 min after reperfusion): 35 ± 3 °
- Angle of inclined plane where test animals tumble down the ramp (cerebral infarction [4]; 60 min after reperfusion, *P < 0.05): 35 ± 2 °
- Angle of inclined plane where test animals tumble down the ramp (cerebral infarction [4]; 120 min after reperfusion, *P < 0.05): 36 ± 2 °
- Angle of inclined plane where test animals tumble down the ramp (cerebral infarction [4]; 180 min after reperfusion): 38 ± 2 °
- Angle of inclined plane where test animals tumble down the ramp (cerebral infarction [4]; ligation time 0 min): 47 ± 1 °
- Angle of inclined plane where test animals tumble down the ramp (cerebral infarction [4]; ligation time 15 min): 20 ± 0 °
- body weight between the control group and the test group (Wistar-strain rats): No difference in body weight
- general behaviors (Wistar-strain rats): no change was observed in general behaviors
- internal organs under macroscopic observation (autopsy) (Wistar-strain rats): no abnormality in internal organs
